This is an account of results in patent US20210332139A1, “MODULATION OF LEUKOCYTE ACTIVITY IN TREATMENT OF NEUROINFLAMMATORY DEGENERATIVE DISEASE” (Leuvas Therapeutics, priority 2013, published 2021).

Type in all cases: cell-based
The subject of one experiment is neutrophils. Nature of the experiment: Rapid adhesion of neutrophils, soluble versus fibrillary Aβ1-42. As to conditions: fMLP, concentration not given, mean+/−SD. The source says: Although two-times less efficient than the soluble form, fibrillary Aβ triggered a significant increase of rapid neutrophil adhesion on both ICAM-1 and fibrinogen (Table 8; data are expressed as the mean+/−SD of bound cells in 0.2 mm^2 from three independent experiments made in duplicate).

Experiment [1] has as its system mouse neutrophils. Nature of the experiment: Rapid adhesion of mouse neutrophils to fibrinogen and ICAM-1. As to conditions: fMLP 1 μM, mean+/−SD. The source says:
(§1) All data are expressed as the mean+/−SD of bound cells in 0.2 mm^2 from three independent experiments made in duplicate.

Experiment [2] has as its system human neutrophils. Briefly: Isoluminol chemiluminescence ROS assay, human neutrophils. As to conditions: human neutrophils on fibrinogen, mean+/−SD. The procedure:
One of the mechanisms of neuronal damage by beta-amyloid in Alzheimer's disease is the generation of reactive oxygen species (ROS). We determined whether Aβ1-42 oligomers induce ROS production in neutrophils by using a chemiluminescence assay.
(§2) Isoluminol-based chemiluminescence assays were performed in HGCa in the presence of horseradish peroxidase (HRP) and isoluminol (both from Sigma-Aldrich) in a temperature-controlled Multilabel Count Victor X5 (Perkin Elmer). Assays were run in dark 96 well plates precoated with 250 μg/ml human fibrinogen in HGCa containing (final concentration): 100 μM isoluminol and 8 U/ml HRP. After addition of 1×10^5 human neutrophils or 7.5×10^5 mouse neutrophils, plates were left at 37° C. for 5-10 min and the reaction started by addition of the stimulus. Light emission was recorded every minute.
(§3) We used the chemotactic peptide fMLP as positive control. […] Data are mean+/−SD for three independent experiments.

Experiment [3] has as its system human neutrophils. Briefly: Rapid human neutrophil adhesion to ICAM-1, inhibition by bocMLF and PTx. As to conditions: 0.1 μM fMLP. As for the experimental part: It is known that one of the receptors for Aβ is the receptor for fMLP, formylpeptide chemotactic receptor (FPR). To evaluate the contribution of this GPCR receptor on Aβ-dependent neutrophil adhesion, we inhibited its function using boc-MLF, a formyl-peptide chemotactic receptor antagonist. Human neutrophils were incubated for 2 minutes with buffer (control) or with oligomeric Aβ. 0.1 μM fMLP was used as a positive control. Values are expressed as the mean counts of bound cells in 0.2 mm^2 from three independent experiments in duplicate. Error bars represent SD. […] To exclude the possibility that rapid adhesion triggering was a consequence of a generic plasma membrane alteration due to the lipophilic nature of Aβ, we evaluated rapid adhesion in lymphocytes, which are known to lack fMLP receptors.

The next experiment relates to LFA-1. Nature of the experiment: LFA-1 affinity state in human neutrophils (conformer-specific antibodies, cytofluorimetry). The conditions noted are these: 0.1 μM, 10 s, mean fluorescence intensity, ctrl = 1. The source says: Neutrophil arrest is rapidly triggered by chemokines or other chemoattractants and is mediated by the binding of LFA-1 integrin to its vascular ligand ICAM-1. Ligation of specific heterotrimeric GPCRs by chemokines induces integrins to undergo a dramatic transition from a bent low-affinity conformation to extended intermediate- and high-affinity conformations, which leads to opening of the ligand-binding pocket. We hypothesized that Aβ may trigger intermediate and/or high affinity state of LFA-1 integrin and studied the effect of Aβ1-42 oligomers on human LFA-1 affinity using KIM127 and 327A conformer-specific antibodies for intermediate- and high-affinity state respectively.
The cells were stimulated for 10 s with 0.5 μmol/L of CXCL12, 0.1 μM fMLP, 20 μM Aβ1-42, or 20 μM Aβ42-1 under stirring at 37° C. After rapid washing, cells were stained with FITC-conjugated secondary polyclonal antibody and analyzed by cytofluorimetric quantification. Data are mean fluorescence intensity +/−SD from three independent experiments.

The subject of experiment [4] is human neutrophils. Briefly: Rapid adhesion of human neutrophils to fibrinogen and ICAM-1. The conditions noted are these: 0.1 μM, mean+/−SD.
From the text: as §1

A further experiment deals with human primary PMNs. Nature of the experiment: Static adhesion of human primary PMNs to ICAM-1 with signaling inhibitors. The conditions noted are these: 50 nM fMLP, 1 min. The procedure:
As a model system, human primary PMNs were isolated form healthy donors stimulated to very rapid adhesion to purified human ICAM-1, ligand for the β2 integrins LFA-1 and Maci. fMLP (the classical chemoattractant) was the positive control. […] PMNs were treated for 30 min. with different concentrations of inhibitors followed by stimulation for 1 min with 50 nM fMLP or with 10 μM Aβ. The number of adherent cells was quantified by computer-assisted evaluation. Statistical analysis was SD.

Experiment [5] has as its system mouse neutrophils. Nature of the experiment: Isoluminol chemiluminescence ROS assay, mouse neutrophils. As to conditions: mean+/−SD. The procedure:
as §2, §3
Data are mean+/−SD counts per second.

Values joined by “and” are separate entries in the source; they are usually repeats but may differ in a detail not shown here. Equal entries are not always repeated.

Regarding fMLP, the results for the “Rapid adhesion to Fibrinogen” value in the experiment with neutrophils, in the experiment with mouse neutrophils [1] and with human neutrophils [4] were 285.5 ± 14.6 bound cells in 0.2 mm^2, 72.40 ± 14.33 bound cells in 0.2 mm^2 and 361.5 ± 88.2 bound cells in 0.2 mm^2, respectively. Also, the “Rapid adhesion to ICAM-1” value in the experiment with neutrophils was determined as 578.5 ± 66.5 bound cells in 0.2 mm^2; with mouse neutrophils [1], 183.6 ± 23.9 bound cells in 0.2 mm^2; with human neutrophils [4], 203.8 ± 29.2 bound cells in 0.2 mm^2. Also, the “ROS generation (chemiluminescence)” value with human neutrophils [2] (1 min) is listed as 908 ± 137; in the experiment with human neutrophils [2] (2 min), 783 ± 108; with human neutrophils [2] (3 min) it was 515 ± 103; with human neutrophils [2] (4 min), 325 ± 158; in the experiment on human neutrophils [2] (5 min), 272 ± 134; in the experiment on mouse neutrophils [5] (1 min) it was 599 ± 199 counts per second. For the same substance, the “ROS generation (chemiluminescence)” value with mouse neutrophils [5] (2 min) was 231 ± 91 counts per second; in the experiment with mouse neutrophils [5] (3 min), 90 ± 17 counts per second; in the experiment with mouse neutrophils [5] (4 min) it was 65 ± 36 counts per second; in the experiment with mouse neutrophils [5] (5 min) it was 59 ± 54 counts per second. In addition, the “Neutrophil adhesion to ICAM-1, stimulus alone (Ctrl, no inhibitor)” value in the experiment with human neutrophils [3] is 497.1 ± 33.3 bound cells in 0.2 mm^2 and 484.1 ± 39.7 bound cells in 0.2 mm^2. Besides, the “327A (high-affinity state of LFA-1)” value in the experiment with LFA-1 is listed as 4.35 ± 0.63. Besides, the “KIM127 (intermediate-affinity state of LFA-1)” value in the experiment on LFA-1 is listed as 2.94 ± 0.21. Further, in the experiment on human primary PMNs, the “Adherent hPMNs to ICAM-1, fMLP, Mean, Control (no inhibitor)” value is 444.6 and 500.8 and 433.5 and 463.1 and 484.1 and 486.8.
